Measured values: patent publication US10770169B2, “Method of providing a treatment to a subject based on a dynamic pathway map” (THE REGENTS OF THE UNIVERSITY OF CALIFORNIA, priority 2010, dated 2020)
Entries after “also recorded” stand apart in the source; their conditions may differ.

Columns and labels:
Assay type in all cases: cell-based, human
[1] = tested on: panel of 55 breast cancer cell lines; assay: Cell growth inhibition assay (Cell Titer Glo, 72 h, 9 doses; GI50, TGI, LC50); details: value is the negative log10 of mol/L
[2] = tested on: luminal, basal, claudin-low and ERBB2AMP breast cancer cell lines; assay: Associations of clinically relevant subtypes and response (non-parametric ANOVA or t-test on GI50 ranks); details: for Subtype specificity: Table 6, most sensitive subtype, FDR p<0.20
Outline: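 GI50 values were compared between cell-line subtype groups by non-parametric ANOVA or t-test on ranks. P-values from three test sets were combined and FDR-corrected. Significant three-group effects were followed by post-hoc comparison of each group against all others, and FDR p<0.20 counted as significant.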

[3] = tested on: breast cancer cell lines with aberrant vs normal copy number; assay: Association of recurrent copy number changes and response (t-test on GI50); details: FDR p<0.2
Description: We used a t-test to assess the association between recurrent copy number changes (at 8q24 (MYC), 11q13 (CCND1), 20q13 (STK15/AURKA)) and drug sensitivity. We combined into a single group cell lines with low or no amplification and compared them to cell lines with high amplification. […] Cell lines for which the GI50 was equal to the maximum concentration tested were omitted from analysis. We omitted compounds where any group had fewer than five samples.

[4] = 600MPE cell line, censored GI50 values
[5] = AU565 cell line, censored GI50 values
[6] = BT474 cell line, censored GI50 values
[7] = BT483 cell line, censored GI50 values
[8] = CAMA1 cell line, censored GI50 values
[9] = HCC38 cell line, censored GI50 values
[10] = HCC70 cell line, censored GI50 values
[11] = HCC202 cell line, censored GI50 values
[12] = HCC1143 cell line, censored GI50 values
[13] = HCC1187 cell line, censored GI50 values
[14] = HCC1395 cell line, censored GI50 values
[15] = HCC1419 cell line, censored GI50 values
[16] = HCC1428 cell line, censored GI50 values
[17] = HCC1500 cell line, censored GI50 values
[18] = HCC1806 cell line, censored GI50 values
[19] = HCC1937 cell line, censored GI50 values
[20] = HCC1954 cell line, censored GI50 values
[21] = HCC2185 cell line, censored GI50 values
[22] = HCC3153 cell line, censored GI50 values
[23] = MCF7 cell line, censored GI50 values
[24] = MDAMB134VI cell line, censored GI50 values
[25] = MDAMB157 cell line, censored GI50 values
[26] = MDAMB175VII cell line, censored GI50 values
[27] = MDAMB231 cell line, censored GI50 values
[28] = MDAMB361 cell line, censored GI50 values
[29] = MDAMB415 cell line, censored GI50 values
[30] = MDAMB436 cell line, censored GI50 values
[31] = MDAMB453 cell line, censored GI50 values
[32] = MDAMB468 cell line, censored GI50 values
[33] = SKBR3 cell line, censored GI50 values
[34] = SUM149PT cell line, censored GI50 values
[35] = SUM159PT cell line, censored GI50 values
[36] = SUM185PE cell line, censored GI50 values
[37] = SUM1315MO2 cell line, censored GI50 values

`N.N.O=C([O-])C1(C(=O)[O-])CCC1.[Pt+2]` [Carboplatin] showed a GI50 [1, 4] of 3.82, a GI50 [1, 5] of 4.94 and a GI50 [1, 6] of 3.98. For the same compound, the GI50 [1, 7] was 5.82, the GI50 ([1]; BT549 cell line, censored GI50 values) was 4.58 and the GI50 [1, 8] was 3.72. For the same compound, the GI50 [1, 9] was 4.76, the GI50 [1, 10] was 4.82 and the GI50 [1, 11] was 4.44. It also gave a GI50 [1, 12] of 3.85, a GI50 [1, 13] of 4.66 and a GI50 [1, 14] of 5.00. It also gave a GI50 [1, 15] of 4.15, a GI50 [1, 16] of 3.86 and a GI50 [1, 17] of 4.69. For the same compound, the GI50 [1, 18] was 4.80, the GI50 [1, 19] was 4.44 and the GI50 [1, 20] was 4.37. For the same compound, the GI50 [1, 21] was 4.69, the GI50 [1, 22] was 4.45 and the GI50 ([1]; LY2 cell line, censored GI50 values) was 4.39. The GI50 [1, 23] was 3.77, the GI50 [1, 24] was 3.73 and the GI50 [1, 25] was 4.07. For the same compound, the GI50 [1, 26] was 4.44, the GI50 [1, 27] was 4.09 and the GI50 [1, 28] was 4.34. For the same compound, the GI50 [1, 29] was 3.73, the GI50 [1, 30] was 4.18 and the GI50 [1, 31] was 4.23. For the same compound, the GI50 [1, 32] was 4.31, the GI50 [1, 33] was 4.87 and the GI50 ([1]; SUM52PE cell line, censored GI50 values) was 4.71. For the same compound, the GI50 [1, 34] was 4.87, the GI50 [1, 35] was 4.55 and the GI50 [1, 36] was 3.90. For the same compound, the GI50 [1, 37] was 4.56, the GI50 ([1]; T47D cell line, censored GI50 values) was 3.95 and the GI50 ([1]; UACC812 cell line, censored GI50 values) was 4.81. For the same compound, the GI50 ([1]; ZR75B cell line, censored GI50 values) was 3.52, the GI50 ([1]; ZR751 cell line, censored GI50 values) was 4.07 and the GI50 ([1]; ZR7530 cell line, censored GI50 values) was 4.55. It also gave a GI50 ([1]; cell line 600MPE) of 3.82, a GI50 ([1]; cell line AU565) of 4.94 and a GI50 ([1]; cell line BT474) of 3.98. The GI50 ([1]; cell line BT483) was 5.82, the GI50 ([1]; cell line BT549) was 4.58 and the GI50 ([1]; cell line CAMA1) was 3.72. It also gave a GI50 ([1]; cell line HCC38) of 4.76, a GI50 ([1]; cell line HCC70) of 4.82 and a GI50 ([1]; cell line HCC202) of 4.44. The GI50 ([1]; cell line HCC1143) was 3.85, the GI50 ([1]; cell line HCC1187) was 4.66 and the GI50 ([1]; cell line HCC1395) was 5.00. It also gave a GI50 ([1]; cell line HCC1419) of 4.15, a GI50 ([1]; cell line HCC1428) of 3.86 and a GI50 ([1]; cell line HCC1500) of 4.69. It also gave a GI50 ([1]; cell line HCC1806) of 4.80, a GI50 ([1]; cell line HCC1937) of 4.44 and a GI50 ([1]; cell line HCC1954) of 4.37. It also gave a GI50 ([1]; cell line HCC2185) of 4.69, a GI50 ([1]; cell line HCC3153) of 4.45 and a GI50 ([1]; cell line LY2) of 4.39. For the same compound, the GI50 ([1]; cell line MCF7) was 3.77, the GI50 ([1]; cell line MDAMB134V) was 3.73 and the GI50 ([1]; cell line MDAMB157) was 4.07. It also gave a GI50 ([1]; cell line MDAMB175V) of 4.44, a GI50 ([1]; cell line MDAMB231) of 4.09 and a GI50 ([1]; cell line MDAMB361) of 4.34. It also gave a GI50 ([1]; cell line MDAMB415) of 3.73, a GI50 ([1]; cell line MDAMB436) of 4.18 and a GI50 ([1]; cell line MDAMB453) of 4.23. For the same compound, the GI50 ([1]; cell line MDAMB468) was 4.31, the GI50 ([1]; cell line SKBR3) was 4.87 and the GI50 ([1]; cell line SUM52PE) was 4.71. For the same compound, the GI50 ([1]; cell line SUM149PT) was 4.87, the GI50 ([1]; cell line SUM159PT) was 4.55 and the GI50 ([1]; cell line SUM185PE) was 3.90. It also gave a GI50 ([1]; cell line SUM1315MO) of 4.56, a GI50 ([1]; cell line T47D) of 3.95 and a GI50 ([1]; cell line UACC812) of 4.81. For the same compound, the GI50 ([1]; cell line UACC893) was 3.04, the GI50 ([1]; cell line ZR75B) was 3.52 and the GI50 ([1]; cell line ZR751) was 4.07. For the same compound, the GI50 ([1]; cell line ZR7530) was 4.55, the Subtype specificity [2] was “Basal + Claudin-low” and the “association of response with amplification at 11q13 (CCND1)” value [3] was “associated with sensitivity; also recorded: associated with response”.

`CCn1cc(-c2ccnc3[nH]c(-c4cccc(CN(C)C)c4)cc23)c(-c2ccc(NC(=O)N(C)C)cc2)n1` [GSK1070916] showed a GI50 [1, 4] of 5.10, a GI50 [1, 5] of 5.52 and a GI50 [1, 6] of 5.19. For the same compound, the GI50 [1, 7] was 5.35, the GI50 [1, 8] was 5.05 and the GI50 [1, 9] was 6.44. The GI50 [1, 10] was 6.59, the GI50 [1, 11] was 6.03 and the GI50 [1, 12] was 5.51. The GI50 [1, 13] was 7.95, the GI50 [1, 14] was 6.24 and the GI50 [1, 15] was 5.18. The GI50 [1, 16] was 5.19, the GI50 [1, 17] was 5.19 and the GI50 [1, 18] was 5.16. For the same compound, the GI50 [1, 19] was 5.42, the GI50 [1, 20] was 5.56 and the GI50 [1, 21] was 6.34. For the same compound, the GI50 [1, 22] was 4.95, the GI50 [1, 23] was 5.06 and the GI50 [1, 24] was 5.57. The GI50 [1, 25] was 5.95, the GI50 [1, 26] was 5.07 and the GI50 [1, 27] was 5.78. It also gave a GI50 [1, 28] of 5.19, a GI50 [1, 29] of 5.76 and a GI50 [1, 30] of 7.01. For the same compound, the GI50 [1, 31] was 5.51, the GI50 [1, 32] was 7.89 and the GI50 [1, 33] was 5.29. The GI50 [1, 34] was 5.48, the GI50 [1, 35] was 5.77 and the GI50 [1, 36] was 5.94. For the same compound, the GI50 [1, 37] was 5.89, the GI50 ([1]; cell line 600MPE) was 5.10 and the GI50 ([1]; cell line AU565) was 5.52. For the same compound, the GI50 ([1]; cell line BT474) was 5.19, the GI50 ([1]; cell line BT483) was 5.35 and the GI50 ([1]; cell line CAMA1) was 5.05. The GI50 ([1]; cell line HCC38) was 6.44, the GI50 ([1]; cell line HCC70) was 6.59 and the GI50 ([1]; cell line HCC202) was 6.03. The GI50 ([1]; cell line HCC1143) was 5.51, the GI50 ([1]; cell line HCC1187) was 7.95 and the GI50 ([1]; cell line HCC1395) was 6.24. The GI50 ([1]; cell line HCC1419) was 5.18, the GI50 ([1]; cell line HCC1428) was 5.19 and the GI50 ([1]; cell line HCC1500) was 5.19. For the same compound, the GI50 ([1]; cell line HCC1806) was 5.16, the GI50 ([1]; cell line HCC1937) was 5.42 and the GI50 ([1]; cell line HCC1954) was 5.56. For the same compound, the GI50 ([1]; cell line HCC2185) was 6.34, the GI50 ([1]; cell line HCC3153) was 4.95 and the GI50 ([1]; cell line MCF7) was 5.06. The GI50 ([1]; cell line MDAMB134V) was 5.57, the GI50 ([1]; cell line MDAMB157) was 5.95 and the GI50 ([1]; cell line MDAMB175V) was 5.07. For the same compound, the GI50 ([1]; cell line MDAMB231) was 5.78, the GI50 ([1]; cell line MDAMB361) was 5.19 and the GI50 ([1]; cell line MDAMB415) was 5.76. The GI50 ([1]; cell line MDAMB436) was 7.01, the GI50 ([1]; cell line MDAMB453) was 5.51 and the GI50 ([1]; cell line MDAMB468) was 7.89. It also gave a GI50 ([1]; cell line SKBR3) of 5.29, a GI50 ([1]; cell line SUM52PE) of 6.84 and a GI50 ([1]; cell line SUM149PT) of 5.48. For the same compound, the GI50 ([1]; cell line SUM159PT) was 5.77, the GI50 ([1]; cell line SUM185PE) was 5.94 and the GI50 ([1]; cell line SUM1315MO) was 5.89. It also gave a GI50 ([1]; cell line UACC812) of 4.51, a GI50 ([1]; cell line UACC893) of 5.06 and a GI50 ([1]; cell line ZR75B) of 5.75. The GI50 ([1]; cell line ZR751) was 4.94, the GI50 ([1]; cell line ZR7530) was 4.71 and the “subtype-specific response (sensitivity by transcriptional subtype)” value ([2]; GI50 across subtypes) was “more active against basal and claudin-low cell lines”. For the same compound, the Subtype specificity [2] was “Claudin-low”, the “association of response with amplification at 11q13 (CCND1)” value [3] was “associated with sensitivity; also recorded: associated with response” and the “association of response with amplification at 20q13 (STK15/AURKA)” value [3] was “associated with resistance, rather than sensitivity”.
